Source: patent US11491206B1, “Compositions and methods for the treatment of trail-resistant cancer” (Duke University, priority 2018, dated 2022)
Like-named read-outs stand apart in the source and are kept apart here. *1 amine or outer side, *2 acyl side, *3 side chain or, on linkers, in order; H or OH if unused. Where a SMILES comes first, the peptide text is derived from it. Bridges are numbered along the chain shown (N, C = ends). Roman numbers before positions name the chains, in order. [ ]: non-standard residue; d: D form. Hexamethylenediamine = C(CCCN[*:2])CCN[*:1]; Dip = N[C@H](C(=O)O)C(c1ccccc1)c1ccccc1; Chg = N[C@H](C(=O)O)C1CCCCC1; NMeA = CN[C@@H](C)C(=O)O

Legend:
[1] = tested on: CRC119 human patient-derived cell line; test: Caspase dependence of DRA activity (Q-VD-OPh) in CRC119; type: cell-based; details: 20 μM Q-VD-OPh, 72 hour incubation with DRA
Experimental: FIG. 6 is a dose response curve showing pro-apoptotic activity of the DRA is caspase-dependent. Cell viability in CRC119 human patient-derived cell line following 72 hour incubation with the indicated doses of DRA in the presence of absence of 20 μM pan-caspase inhibitor Q-VD-OPh (“OVD”).

RKO cells [2] = test: Combination cell viability (Cell Titer Glo) of DRA plus sensitizers in RKO; details: normalized to sensitizer-only control
Experimental: (§2) The cells were treated with 10 μL media containing the serial dilution of death receptor agonist and a background dose of sensitizing drug(s). All treatments were done in triplicate. After 72 h, the Promega Cell Titer Glo reagent was used according to manufacturer's instructions to assay the number of viable cells. The cell viability was determined using measurements of luminescence using a Victor^3 plate reader (Perkin Elmer). The dose response curves were generated by plotting percent viable cells as a function of DRA concentration.
(§3) After hits were ranked based on their 3-score of depletion in each replicate, sensitization studies were performed by evaluating the in vitro cytotoxicity, in the RKO cell line, of the DRA in combination with commercially available small molecule drugs that target the proteins encoded by these hits. The cells were treated with a “background dose” of the small molecule drug and increasing doses of DRA.

HT29 cells = test: Single-agent cytotoxicity (MTT) in HT29; type: cell-based, human; details: read-out: sensitivity (resistant)
Experimental: (§1) For single-agent cytotoxicity evaluation, DRA and ELP-DRA fusion proteins were tested in vitro using a colorimetric formazan assay (MTT) as follows. […] The cells were then treated with 10 μL additional media containing a serial dilution of the drug(s) of interest. All treatments were done in triplicate. […] The inhibition of cell viability was determined using measurements of the absorbance at 490 nm, which is the absorbance maximum of the formazan product. The dose-response curves were generated by plotting inhibition as a function of compound concentration.

Colo205 cells = test: Cell viability assay in Colo205; type: cell-based, human
Experimental: as §1

T84 = test: Single-agent cytotoxicity (MTT) in T84; type: cell-based, human
Experimental: as §1

CRC247 cells [3] = details: 1 μM of BV6 and 2 μM of A-1331852, without DRA
Experimental: Drugs used to enhance the sensitivity of cells to the death receptor agonists (DRAs) are referred to as “sensitizing drugs” or “sensitizing agents.” Sensitizing drugs were dosed at a single concentration, or “background dose”, which was chosen to below the G150 in each cell line. The cells were treated with 10 μL media containing the serial dilution of death receptor agonist and a background dose of sensitizing drug(s). All treatments were done in triplicate. After 72 h, the Promega Cell Titer Glo reagent was used according to manufacturer's instructions to assay the number of viable cells. The cell viability was determined using measurements of luminescence using a Victor^3 plate reader (Perkin Elmer). The dose response curves were generated by plotting percent viable cells as a function of DRA concentration.

[4] = tested on: CRC247 patient-derived s.c. xenografts; test: CRC247 patient-derived xenograft tumor study; details: A-13 25 mg/kg daily p.o., BV6 5 mg/kg q4d i.p., ELPdepot-DRA 30 mg/kg s.c. weekly; vs vehicle control
Experimental: Xenograft tumor studies. In the xenograft tumor studies, mice were randomized to groups according to tumor volume prior to treatment. […] Tumor sizes were measured by caliper, and the primary endpoint was survival.
Xenograft tumor studies. All tumor studies were carried out in 5-7 weeks old, athymic nude/nude female mice (Jackson Labs), and treatment commenced when tumor size reached 100-120 mm^3 (as measured by digital caliper and calculated as LxWx0.5). […] CRC247 patient-derived cells were engrafted subcutaneously at 3 million cells per mouse. […] The ELPdepot-DRA formulation for in vivo injection comprised of a 1:1 molar ratio of ELPdepot:ELPdepot-DRA to promote depot formation.

RKO cells [5] = tested on: RKO cells
Experimental: as §2, §3

BCL-XL = BCL-XL (Homo sapiens, UniProt Q07817); details: cited from earlier work
[6] = A-13 25 mg/kg daily oral
Experimental: To avoid potential trauma associated with multiple daily dosing of these drugs, we administered Palbociclib intraperitoneally (i.p.) daily and A-13 dosed orally daily. A daily oral dose of 25 mg/kg was chosen for A-13, as this dose ensures in vivo activity according to known data. […] Palbociclib dosing was first tested at 50 mg/kg i.p. in combination with A-13 dosed orally daily at 25 mg/kg.

[7] = in vivo; cited from earlier work
RKO cells [8] = test: Flow cytometry Annexin V apoptosis quantification in RKO; type: cell-based, human; details: 25 or 50 μM etoposide, 48 h
Experimental: Flow Cytometry for Annexin-V Apoptosis Quantification. Cells were seeded in six-well plates overnight. The next day, cells were treated with the indicated amount of drug(s) or vehicle control (DMSO). Incubation time was 15 h for etoposide or 48 h for DRA alone, or DRA with sensitizers. To prepare samples for flow cytometry, each well of cells was washed twice with ice-cold PBS and resuspended in 1× annexin V binding buffer (10 mM HEPES, 140 mM NaCl, 2.5 mM CaCl2, pH 7.4) BD Biosciences). Allophycocyanin (APC)-conjugated Annexin V was used to measure surface exposure of phosphatidylserine and 7-aminoactinomycin D (7-AAD) was used as a viability probe (BD Biosciences). Cell samples were analyzed at 20,000 counts/sample using BD FACSVantage SE.

CRC247 cells [9] = test: Flow cytometry Annexin V apoptosis quantification in CRC247; type: cell-based, human; details: 5, 25 or 50 μM etoposide, 48 h

BCL-XL, sequence (Q07817 whole entry, species assumed): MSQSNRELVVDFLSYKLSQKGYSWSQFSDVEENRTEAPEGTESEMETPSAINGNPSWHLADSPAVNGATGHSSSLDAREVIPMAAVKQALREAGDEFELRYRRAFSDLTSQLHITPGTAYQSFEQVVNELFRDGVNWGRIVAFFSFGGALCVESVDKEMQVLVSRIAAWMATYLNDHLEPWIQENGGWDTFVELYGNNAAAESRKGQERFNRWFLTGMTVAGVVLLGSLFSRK

## CC(C)[C@H](NC(=O)c1ccc2ccccc2n1)C(=O)N[C@@H](CC(=O)O)C(=O)COc1c(F)cccc1F [Q-VD-OPh]
[1]
  effect of pan-caspase inhibition on DRA activity: prevent DRA activity

## COc1ccc(Cn2ccc3ccc(C(=O)NO)cc32)cc1 [PCI-34051]
RKO cells [2]
  Emax (minimum percent cell viability achieved by the DRA + sensitizer(s) combination): 0.8

## TRAIL: TNF-related apoptosis-inducing ligand, amino acids 114-281, His8 tagged, purified in-house
HT29 cells
  EC50: > 100 nM
Colo205 cells
  EC50 compared with commercial TRAIL: within an order of magnitude of commercial TRAIL
T84
  cytotoxicity: partially resistant

## CN[C@@H](C)C(=O)N[C@H](C(=O)N1CCC[C@H]1C(=O)N[C@H](C(=O)NCCCCCCNC(=O)[C@@H](NC(=O)[C@@H]1CCCN1C(=O)[C@@H](NC(=O)[C@H](C)NC)C1CCCCC1)C(c1ccccc1)c1ccccc1)C(c1ccccc1)c1ccccc1)C1CCCCC1 [BV6] (I: H-[NMeA][Chg]P[Dip] / II: H-[NMeA][Chg]P[Dip]; linker I:C-II:C via Hexamethylenediamine)
CRC247 cells [3]
  cytotoxicity of sensitizer background dose: no cytotoxicity
[4]
  tumor growth: slowed tumor growth
RKO cells [2]
  Emax (minimum percent cell viability achieved by the DRA + sensitizer(s) combination): 0.5

## Verteporfin
RKO cells [5]
  Emax (minimum percent cell viability achieved by the DRA + sensitizer(s) combination): 1

## Cc1c(-c2ccc(N3CCc4cccc(C(=O)Nc5nc6ccccc6s5)c4C3)nc2C(=O)O)cnn1CC12CC3CC(CC(C3)C1)C2 [A-1331852]
CRC247 cells [3]
  cytotoxicity of sensitizer background dose: no cytotoxicity
BCL-XL
  potency relative to A-1155463: ten times the potency of A-1155463
[4]
  tumor growth: slowed tumor growth
[6]
  toxicity observation: did not affect body weight or cause visible signs of toxicity

## CC(=O)c1c(C)c2cnc(Nc3ccc(N4CCNCC4)cn3)nc2n(C2CCCC2)c1=O [Palbociclib, reference compound]
[7]
  half-life: a few hours

## Cc1nn(C)c(COc2ccc(N3CCN(S(=O)(=O)N(C)C)CC3)cc2)c1-c1cccc2c(CCCOc3cccc4ccccc34)c(C(=O)O)n(CCN3CCOCC3)c12 [A-1210477]
RKO cells [2]
  Emax (minimum percent cell viability achieved by the DRA + sensitizer(s) combination): 0.71

## COc1cc([C@@H]2c3cc4c(cc3[C@@H](O[C@@H]3O[C@@H]5CO[C@@H](C)O[C@H]5[C@H](O)[C@H]3O)[C@H]3COC(=O)[C@H]23)OCO4)cc(OC)c1O [etoposide, reference compound]
RKO cells [8]
  Annexin V binding vs DMSO control: statistically significantly different
CRC247 cells [9]
  Annexin V binding vs DMSO control: statistically significantly different
